This passage reports Ki and Km results from doi:10.1101/2024.09.27.615266v1 (biorxiv, 2024).

Data set [1] addresses T1, CYP2A6 (commercial, Vivid kit Baculosomes) (Homo sapiens, UniProt P11509).
T1 sequence (P11509 1-494): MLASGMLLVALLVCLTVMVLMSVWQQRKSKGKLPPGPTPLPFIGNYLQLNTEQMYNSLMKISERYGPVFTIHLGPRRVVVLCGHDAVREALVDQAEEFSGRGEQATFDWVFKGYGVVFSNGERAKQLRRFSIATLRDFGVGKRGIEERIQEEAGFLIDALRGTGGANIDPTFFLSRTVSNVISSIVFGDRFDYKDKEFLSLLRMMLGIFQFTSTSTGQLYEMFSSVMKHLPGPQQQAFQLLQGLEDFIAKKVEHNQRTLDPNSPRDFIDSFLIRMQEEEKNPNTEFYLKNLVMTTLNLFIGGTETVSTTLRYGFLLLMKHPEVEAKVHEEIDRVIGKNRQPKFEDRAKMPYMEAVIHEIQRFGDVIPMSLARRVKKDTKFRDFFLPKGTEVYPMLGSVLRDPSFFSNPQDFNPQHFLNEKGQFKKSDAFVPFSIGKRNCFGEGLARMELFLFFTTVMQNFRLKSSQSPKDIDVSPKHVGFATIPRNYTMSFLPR
Nature of the data set: fluorescent 3-cyano coumarin turnover, Morrison tight-binding fit. The format is biochemical.

Substrate in the data set “purified protein”: N#Cc1cc2ccccc2oc1=O
Nature of the data set: purified protein. In kind it is biochemical, Homo sapiens. As to conditions: 10 nM CYP2A6, 30 μM NADPH, 0.25-32 μM substrate.

The term Ki denotes the dissociation constant of the complex between target and ligand, obtained from inhibition or displacement. Low readings indicate higher affinity, high ones lower affinity. For the molecule `CCCCCC(O)/C=C/C=O` (centres unmarked) [HNE], the affinity in data set [1], expressed as Ki, was 208 ± 35.4 µM.

B1: CYP2A6 (commercial, Vivid kit Baculosomes) (Homo sapiens) (protein)
chain: T1 sequence (P11509 1-494)
By Km is commonly meant the concentration of substrate that gives half-maximal velocity. With B1, the Km in “purified protein” came out at 12 ± 6 µM.
